Earlier results in patent US20050009848A1, “Use of antivirals against inflammatory bowel diseases” (ICN Pharmaceuticals Switzerland Ltd., priority 2003, published 2005).

Conditions: one patient with Crohn's disease, HSV-I and HSV-II DNA detected in intestinal mucosa; acyclovir co-used with classical mesalazin-corticosteroid therapy

SMILES: Nc1nc2c(ncn2COCCO)c(=O)[nH]1 [acyclovir]
- morphological and clinical findings: changed the morphological and clinical findings decisively
